In patent US12606528B2, “Methods and materials for inhibiting NF-kB activity” (University of Pittsburgh - Of the Commonwealth System of …, priority 2019, dated 2026):
Read-outs that look alike come from different tables or passages of the source.

Key:
TNF release = assay: TNF assay: TNF release from LPS-stimulated human PBMCs (TNF ELISA); assay type: cell-based; conditions: PBMC, read-out: IC50 (TNF assay)
Procedure, shortened: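 Human PBMCs at 10k/well pretreated with compound dilutions 2 h, then stimulated with LPS (10 ng/mL) for 18 h. TNF in supernatants quantified by ELISA; IC50 for inhibition of TNF release fitted from concentration–response.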

NF-κB = NF-κB assay: THP1-NF-κB-LUC cells, LPS-stimulated secreted luciferase; assay type: cell-based; conditions: THP1-NF-κB-LUC cells, read-out: IC50 (NF-κB assay)
Procedure, shortened: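 THP1-NF-κB-LUC cells (25k/well) were pretreated with compounds for 2 h, then stimulated with LPS (10 ng/mL) for 18 h. Secreted luciferase was measured and normalized to vehicle, and IC50 was fitted from the concentration series.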

[1] = LPS-stimulated human PBMCs, TNF ELISA
[2] = human PBMCs, compounds 2 hours before LPS (10 ng/ml) for 18 hours, supernatant TNF ELISA
[3] = compounds 2 hours before LPS (10 ng/mL) for 18 hours, secreted luciferase

Row | SMILES | IC50 (TNF release; [1]) [µM] | IC50 (NF-κB; LPS-stimulated) [µM] | IC50 (TNF release; [2]) [µM] | IC50 (NF-κB; [3]) [µM]
1 | O=S(=O)(c1ccc(Cl)cc1)c1nc(-c2ccc(Cl)cc2)oc1[S+]([O-])CC1CC1 (centres unmarked) [BC19464] | < 0.1 | 0.1 to 1 | – | –
2 | CCC[S+]([O-])c1[nH]c(-c2ccccc2)nc1S(=O)(=O)c1ccc(Cl)cc1 (centres unmarked) [BC19465] | > 10 | 1 to 10 | – | –
3 | O=S(=O)(c1ccc(Cl)cc1)c1nc(-c2ccccc2)[nH]c1[S+]([O-])CC1CC1 (centres unmarked) [BC19466] | > 10 | 1 to 10 | – | –
4 | O=S(=O)(CC1CC1)c1[nH]c(-c2ccccc2)nc1S(=O)(=O)c1ccc(Cl)cc1 [BC19467] | 1 to 10 | 1 to 10 | – | –
5 | COCCS(=O)(=O)c1[nH]c(-c2ccccc2)nc1S(=O)(=O)c1ccc(Cl)cc1 [BC19468] | > 10 | 1 to 10 | – | –
6 | O=S(=O)(c1ccc(F)cc1)c1nc(-c2ccccc2)[nH]c1[S+]([O-])CC1CC1 (centres unmarked) [BC19469] | > 10 | 1 to 10 | – | –
7 | O=S(=O)(CC1CC1)c1[nH]c(-c2ccccc2)nc1S(=O)(=O)c1ccc(F)cc1 [BC19470] | > 10 | > 10 | – | –
8 | CS(=O)(=O)c1sc(-c2ccccc2)nc1S(=O)(=O)c1ccc(Cl)cc1 [BC19471] | 1 to 10 | 1 to 10 | – | –
9 | CCC[S+]([O-])c1sc(-c2ccccc2)nc1S(=O)(=O)c1ccc(Cl)cc1 (centres unmarked) [BC19472] | > 10 | > 10 | – | –
10 | CC(C)CS(=O)(=O)c1sc(-c2ccccc2)nc1S(=O)(=O)c1ccc(Cl)cc1 [BC19473] | > 10 | > 10 | – | –
11 | CN(C)CC[S+]([O-])c1sc(-c2ccccc2)nc1S(=O)(=O)c1ccc(Cl)cc1 (centres unmarked) [BC19474] | > 10 | 1 to 10 | – | –
12 | CCCS(=O)(=O)c1sc(-c2cccc(F)c2)nc1S(=O)(=O)c1ccc(Cl)cc1 [BC19475] | 1 to 10 | 1 to 10 | – | –
13 | CC(C)S(=O)(=O)c1sc(-c2cccc(F)c2)nc1S(=O)(=O)c1ccc(Cl)cc1 [BC19476] | > 10 | > 10 | – | –
14 | CC(C)CS(=O)(=O)c1sc(-c2cccc(F)c2)nc1S(=O)(=O)c1ccc(Cl)cc1 [BC19477] | > 10 | > 10 | – | –
15 | O=S(=O)(c1ccc(Cl)cc1)c1nc(-c2cccc(F)c2)sc1[S+]([O-])CC1CC1 (centres unmarked) [BC19478] | 1 to 10 | > 10 | – | –
16 | COCC[S+]([O-])c1sc(-c2ccc(Cl)cc2)nc1S(=O)(=O)c1ccc(Cl)cc1 (centres unmarked) [BC19479] | > 10 | > 10 | – | –
17 | CC(C)[S+]([O-])c1sc(-c2ccc(Cl)cc2)nc1S(=O)(=O)c1ccc(Cl)cc1 (centres unmarked) [BC19480] | > 10 | > 10 | – | –
18 | CS(=O)(=O)c1cc2c(c(S(=O)(=O)Nc3ccc(F)c(F)c3)c1)OCC(=O)N2 [BC19481] | – | – | > 10 | < 0.1
19 | CS(=O)(=O)c1cc2c(c(S(=O)(=O)Nc3ccccc3)c1)OCC(=O)N2 [BC19482] | – | – | > 10 | 0.1 to 1
20 | CS(=O)(=O)c1cc2c(c(S(=O)(=O)Nc3ccc(Cl)cc3)c1)OCC(=O)N2 [BC19483] | – | – | > 10 | < 0.1
21 | CCc1ccc(NS(=O)(=O)c2cc(S(C)(=O)=O)cc3c2OCC(=O)N3)cc1 [BC19484] | – | – | > 10 | < 0.1
22 | COc1ccc(NS(=O)(=O)c2cc(S(C)(=O)=O)cc3c2OCC(=O)N3)cc1 [BC19485] | – | – | > 10 | < 0.1
23 | Cc1ccc(NS(=O)(=O)c2cc(S(C)(=O)=O)cc3c2OCC(=O)N3)cc1Cl [BC19486] | – | – | > 10 | < 0.1
24 | CCc1cccc(NS(=O)(=O)c2cc(S(C)(=O)=O)cc3c2OCC(=O)N3)c1 [BC19487] | – | – | > 10 | 0.1 to 1
25 | Cc1ccc(NS(=O)(=O)c2cc(S(C)(=O)=O)cc3c2OCC(=O)N3)cc1 [BC19488] | – | – | > 10 | < 0.1

Row | SMILES | IC50 (TNF release; [1]) [µM] | IC50 (NF-κB; LPS-stimulated) [µM] | IC50 (TNF release; [2]) [µM] | IC50 (NF-κB; [3]) [µM]
26 | Cc1c(Cl)cc2c(c1S(=O)(=O)Nc1ccc(F)c(F)c1)OCC(=O)N2 [BC19489] | – | – | > 10 | < 0.1
27 | Cc1c(Cl)cc2c(c1S(=O)(=O)Nc1ccc(OC(F)(F)F)cc1)OCC(=O)N2 [BC19490] | – | – | > 10 | < 0.1
28 | CCS(=O)(=O)c1cc2c(c(S(=O)(=O)Nc3ccc(Cl)cc3)c1)OCC(=O)N2 [BC19491] | – | – | > 10 | < 0.1
29 | CCc1ccc(NS(=O)(=O)c2cc(S(=O)(=O)CC)cc3c2OCC(=O)N3)cc1 [BC19492] | – | – | > 10 | < 0.1
30 | CCS(=O)(=O)c1cc2c(c(S(=O)(=O)Nc3ccc(C(C)C)cc3)c1)OCC(=O)N2 [BC19493] | – | – | > 10 | < 0.1
31 | COCC(=O)N1CCC(C(=O)Cc2ccc3nc(-c4ccc(F)cc4)c(-c4ccc(F)cc4)nc3n2)CC1 [BC19494] | > 10 | 0.1 to 1 | – | –
32 | N#Cc1cnc2nc(-c3ccc(F)cc3)c(-c3ccc(F)cc3)nc2c1 [BC19495] | > 10 | 0.1 to 1 | – | –
33 | Cn1cnnc1-c1cnc2nc(-c3ccc(F)cc3)c(-c3ccc(F)cc3)nc2c1 [BC19496] | > 10 | < 0.1 | – | –
34 | O=C(NCCN1CCOCC1)c1ccc2nc(-c3ccc(Cl)cc3)c(-c3ccc(Cl)cc3)nc2c1 [BC19497] | > 10 | < 0.1 | – | –
35 | CN1CCN(C(=O)c2ccc3nc(-c4cccc(N(C)C)c4)c(-c4cccc(N(C)C)c4)nc3c2)CC1 [BC19498] | > 10 | > 10 | – | –
36 | C#CCNC(=O)c1ccc2nc(-c3cccc(N(C)C)c3)c(-c3cccc(N(C)C)c3)nc2c1 [BC19499] | > 10 | 1 to 10 | – | –
37 | CN(C)c1cccc(-c2nc3ccc(C(=O)O)cc3nc2-c2cccc(N(C)C)c2)c1 [BC19500] | > 10 | > 10 | – | –
38 | CN(C)c1cccc(-c2nc3ccc(C(=O)NCCN4CCOCC4)cc3nc2-c2cccc(N(C)C)c2)c1 [BC19501] | > 10 | > 10 | – | –
39 | CN(C)c1cccc(-c2nc3ccc(C(=O)NCCO)cc3nc2-c2cccc(N(C)C)c2)c1 [BC19502] | > 10 | > 10 | – | –
40 | O=C(NCCN1CCOCC1)c1ccc2nc(-c3ccc(OC(F)(F)F)cc3)c(-c3ccc(OC(F)(F)F)cc3)nc2c1 [BC19503] | 1 to 10 | 1 to 10 | – | –
41 | O=S(=O)(NCCN1CCOCC1)c1ccc2nc(-c3ccc(F)cc3)c(-c3ccc(F)cc3)nc2c1 [BC19504] | > 10 | 0.1 to 1 | – | –
42 | O=S(=O)(NC1CC1)c1ccc2nc(-c3ccc(F)cc3)c(-c3ccc(F)cc3)nc2c1 [BC19505] | > 10 | 0.1 to 1 | – | –
43 | O=S(=O)(NCC1CC1)c1ccc2nc(-c3ccc(F)cc3)c(-c3ccc(F)cc3)nc2c1 [BC19506] | > 10 | 0.1 to 1 | – | –
44 | COCCNS(=O)(=O)c1ccc2nc(-c3ccc(F)cc3)c(-c3ccc(F)cc3)nc2c1 [BC19507] | > 10 | < 0.1 | – | –
45 | O=S(=O)(CCCCN1CCOCC1)c1ccc2nc(-c3ccc(F)cc3)c(-c3ccc(F)cc3)nc2c1 [BC19508] | 1 to 10 | 0.1 to 1 | – | –
46 | O=S(=O)(NCCCO)c1ccc2nc(-c3ccc(F)cc3)c(-c3ccc(F)cc3)nc2c1 [BC19509] | > 10 | < 0.1 | – | –
47 | CN1CCN(c2ccc3nc(-c4ccc(F)cc4)c(-c4ccc(F)cc4)nc3c2)CC1 [BC19510] | > 10 | 0.1 to 1 | – | –
48 | CC(=O)N1CCN(c2ccc3nc(-c4ccc(F)cc4)c(-c4ccc(F)cc4)nc3c2)CC1 [BC19511] | > 10 | < 0.1 | – | –
49 | N#Cc1ccc2nc(-c3ccc(F)cc3)c(-c3ccc(F)cc3)nc2n1 [BC19512] | > 10 | 0.1 to 1 | – | –
